Measured values from patent publication US20200282010A1, “IMMUNOGENIC COMPOSITIONS AND USES THEREFOR” (Epiaxis Therapeutics Pty Ltd, priority 2017, published 2020).

Tests used:
[1] = tested on: PBMC cells isolated from CR and PD melanoma liquid biopsies; assay: RT-PCR expression of IL-2, IFN-γ and TNF-α in PBMCs from melanoma patient liquid biopsies; type: cell-based, human; settings: FIG. 2B
Description: FIG. 2 is a photographic and graphical representation depicting a PKC-θ resistance signature in CD8^+ T-cells from BRAF negative melanoma patients. A) Melanoma patient formalin-fixed paraffin-embedded (FFPE) tissue from primary tumor baseline biopsy for either a complete response (CR), stable disease (SD) or progressive disease (PD) was processed by 3D high resolution microscopy using a Leica Bond RX Stainer. FFPE tissues were fixed and immunofluorescence microscopy was performed probing with primary antibodies to anti-PD1, anti-PKC-θ (T538p) and anti-CD8 with DAPI. Representative images for each dataset are shown. Graph plots represent the TCFI values for CD8, TNFI for PKC-θ and TCFI for PD1 measured using ImageJ minus background (N=40 cells per a patient sample). B) Peripheral blood mononuclear cells (PBMCs) isolated from melanoma patient liquid biopsies were pre-clinically screened with either control or PKCθi nuclear peptide inhibitor. PBMC Samples were screened in triplicate for expression of IL-2, IFN-γ and TNF-α. C) Melanoma patient FFPE tissue from primary tumor baseline biopsy for CR, SD and two PD cohorts defined by responder or resistant to Dual Immunotherapy was processed by 3D high resolution microscopy using a Leica Bond RX Stainer. FFPE tissues were fixed and immunofluorescence microscopy was performed probing with primary antibodies to anti-PD1, anti-PKC-θ (T538p), anti-CD8 and anti-ZEB1 with DAPI. Representative images for each dataset are shown. Graph plots represent the TCFI values for CD8, TNFI for PKC-θ and TNFI for ZEB1 measured using ImageJ minus background (N=40 cells per a patient sample).
IL-2, IFN-γ and TNF-α are markers of T-cell activation and effector capacity whereas ZEB1 is a negative regulator of T-cell responses and is linked with T-cell effector inhibition as well as cancer progression. Accordingly, the expression of these biomarkers was investigated in the context of modulating the PKC-θ pathway. Employing RT-PCR, the present inventors profiled expression of the effect of PKCθi in PBMC cells isolated from CR and PD melanoma liquid biopsies.

[2] = tested on: CD8^+ T-cells isolated from melanoma patient's bloods; assay: Immunofluorescence of IFN-γ and TNF-α in patient CD8+ T-cells; type: cell-based, human; settings: across all samples, particularly the stimulated samples; inhibitor 8 μm; FIG. 3
Description: FIG. 3 is a photographic representation depicting a PKC-θ resistance signature in CD8^+ T-cells. A-B) CD8s were isolated from melanoma patient liquid biopsies (CR=complete response, SD=Stable Disease, PD=progression of disease) and were stimulated with PMA/CI and pre-clinically screened with either vehicle control or PKCθi nuclear peptide inhibitor. Samples were fixed and immunofluorescence microscopy was performed on these cells with primary antibodies for ZEB1, PKC-θ, and CD8. Representative images for each dataset are shown. Graph represents the TNFI for PKC-Theta and TNFI for ZEB1 measured using ImageJ to select the nucleus minus background (n=>20 cells/sample). […] Graph represents the TNFI for TNF-α and TNFI for IFN-γ measured using ImageJ to select the nucleus minus background (n=>20 cells/sample). […]
Metastatic melanoma biopsies were pre-enriched using the RosetteSep™ method to isolate CTCs by employing the RosetteSep™ Human CD45 Depletion Kit (15162, Stemcell Technologies) to remove CD45+ cells and red blood cells, using density gradient centrifugation with SepMate™-50 (IVD) density gradient tubes (85450, Stemcell Technologies) and Lymphoprep™ density gradient medium (07861, Stemcell Technologies). […] Digital images were analysed using ImageJ software (ImageJ, NIH, Bethesda, Md., USA) to determine TNFI, TCFI or TFI. […]

For RKEIDPPFRPKVK [PKCθi], the “expression of IFN-γ” value ([1]; CR patient cohort) was “some induction”, the “expression of IL-2” value ([1]; CR patient cohort) was “some induction” and the “expression of TNF-α” value ([1]; CR patient cohort) was “some induction”. For the same sequence, the “expression of IFN-γ” value ([1]; PD patient cohort) was “significantly induced”, the “expression of IL-2” value ([1]; PD patient cohort) was “significantly induced” and the “expression of TNF-α” value ([1]; PD patient cohort) was “significantly induced”. The “expression of IFN-γ” value [2] was “significant increase” and the “expression of TNF-α” value [2] was “significant increase”.
